Patent US10266544B2, “Aryl substituted aminomethyl spectinomycin analogs as antibacterial agents” (ST. JUDE CHILDREN'S RESEARCH HOSPITAL, INC., priority 2013, dated 2019)
In brackets after ≈: the same amount, converted by molar mass. Counter-ions that a name gives are not always drawn. Like-named read-outs stand apart in the source and are kept apart here.

Assays:
Assay type in all cases: cell-based
[1] = tested on: Neisseria gonorrhoeae (ATCC 49226); test: Disc diffusion assay; conditions: ATCC49226, 4 μg per disc, read-out: Zone of inhibition N.g.
[2] = tested on: Haemophilus influenza (ATCC 49247); test: microbe, parasite or virus in culture; conditions: ATCC49247; Haemophilus influenza; 4 μg per disc; range of at least two experiments; read-out: Zone of inhibition H.i.
[3] = tested on: Bacillus anthracis, Sterne 34F2; test: microbe, parasite or virus in culture; conditions: STERNE34F2, read-out: MIC B.a.
[4] = tested on: Streptococcus pneumoniae (R6); test: MIC determination, microbroth dilution; conditions: read-out: MIC S. pn.
E. coli K12 ΔtolC = test: microbe, parasite or virus in culture; conditions: Escherichia coli, read-out: MIC E.c. Δtolc
[5] = tested on: acinetobacter baumannii (ATCC 19606); test: MIC determination, microbroth dilution; conditions: ATCC19606
[6] = tested on: Staphylococcus aureus (ATCC 29213); test: MIC determination, microbroth dilution; conditions: ATCC29213; Staphylococcus aureus (ATCC 29213); read-out: MIC S.a.
[7] = tested on: Proteus mirabilis (ATCC 25933); test: MIC determination, microbroth dilution; conditions: ATCC25933
Bacillus anthracis = test: microbe, parasite or virus in culture; conditions: read-out: MIC B.a.
[8] = tested on: MRSA, Staphylococcus aureus (NRS70); test: MIC determination, microbroth dilution; conditions: read-out: MIC MRSA
[9] = tested on: Bacillus subtilis (ATCC 23857); test: MIC determination, microbroth dilution
[10] = tested on: Legionella pneumophila (ATCC 33153); test: microbe, parasite or virus in culture; conditions: ATCC33153, 72 h, read-out: Zone of inhibition L.p.
[11] = tested on: Neisseria meningitides (ATCC 13077); test: Disc diffusion assay; conditions: ATCC13077, 4 μg per disc, read-out: Zone of inhibition N.m.
Listeria monocytogenes = test: MIC determination (Table 6)
[12] = tested on: Klebsiella pneumoniae (ATCC 33495); test: MIC determination, microbroth dilution; conditions: ATCC33495
[13] = tested on: Burkholderia cepacia (ATCC 25416); test: MIC determination, microbroth dilution; conditions: Burkholderia cepacia
[14] = tested on: Stenotrophomonas maltophilia (ATCC 13637); test: MIC determination, microbroth dilution
[15] = tested on: Pseudomonas aeruginosa (PA01); test: MIC determination, microbroth dilution
Moraxella catarrhalis = test: MIC determination (Table 6)
[16] = tested on: Streptococcus pyogenes (ATCC 700294); test: MIC determination, microbroth dilution
[17] = tested on: M. tuberculosis clinical isolates; test: microbe, parasite or virus in culture; conditions: Mycobacterium tuberculosis
[18] = tested on: Escherichia coli (ATCC 700926); test: MIC determination, microbroth dilution
[19] = tested on: Proteus vulgaris (ATCC 33420); test: MIC determination, microbroth dilution; conditions: ATCC33420
[20] = ATCC23857, Bacillus subtilis (ATCC 23857), read-out: MIC B.s.
[21] = ATCC25416, read-out: MIC B.c., Burkholderia cepacia (ATCC 25416)
[22] = ATCC25416, read-out: MIC B.c., Burkholderia cepacia, Table 6
[23] = ATCC13637, Stenotrophomonas maltophilia (ATCC 13637), read-out: MIC S.m.
[24] = Streptococcus pyogenes, ATCC700294, read-out: MIC S. py.
[25] = ATCC700926, Escherichia coli (ATCC 700926), read-out: MIC E.c.
[26] = ATCC700294, Streptococcus pyogenes (ATCC 700294), read-out: MIC S. py.
[27] = Bacillus subtilis, ATCC23857, read-out: MIC B.s.

Row | Structure (SMILES) | zone of inhibition at 4 µg/disc [1] [mm] | zone of inhibition at 4 µg/disc [2] [mm] | MIC [3] [µg/mL] | MIC ([4]; Streptococcus pneumoniae (R6)) [µg/mL] | MIC (E. coli K12 ΔtolC) [µg/mL] | MIC [5] [µg/mL] | MIC [6] [µg/mL] | MIC [7] [µg/mL] | MIC (Bacillus anthracis) [µg/mL] | zone of inhibition at 4 µg/disc [10] [mm] | zone of inhibition at 4 µg/disc [11] [mm] | MIC (Listeria monocytogenes) [µg/mL] | MIC [12] [µg/mL] | MIC [13, 21] [µg/mL] | MIC [13, 22] [µg/mL] | MIC [14, 23] [µg/mL] | MIC [15] [µg/mL] | MIC (Moraxella catarrhalis) [µg/mL] | MIC ([17]; H37RV, read-out: MIC H37Rv) [µg/mL] | MIC [19] [µg/mL] | other results
1 | CN[C@@H]1[C@H](O)[C@H](NC)[C@H]2O[C@]3(O)[C@H](O[C@@H]2[C@H]1O)O[C@H](C)C[C@@]3(O)CNCCc1ccc(C)c(C)c1 [compound 55, 3′-(R)-3′-[(3,4-dimethyl)phenethylaminomethyl]dihydrospectinomycin Trihydrochloride] | 11 | 9 | 100 | 12.5 | 12.5 to 25 | > 200 | 100 | > 200 | 100 | 15 | 8 | 25 | > 200 | > 200 | > 200 | 50 | > 200 | 3.1 | 25 | > 200 | MIC ([8]; Staphylococcus aureus (NRS70)): > 200 µg/mL; MIC [9, 20]: 50 µg/mL; MIC [16, 24]: 12.5 to 25 µg/mL; MIC ([17]; read-out: MIC TN022): 50 µg/mL; MIC ([17]; read-out: MIC TN026): 50 µg/mL; MIC [18, 25]: 100 to 200 µg/mL
2 | CN[C@@H]1[C@H](O)[C@H](NC)[C@H]2O[C@]3(O)[C@H](O[C@@H]2[C@H]1O)O[C@H](C)C[C@@]3(O)CNCc1ccccc1Cl [compound 56, 3′-(R)-3′-[(2-chloro)benzylaminomethyl]dihydrospectinomycin Trihydrobromide] | 0 | 0 | > 200 | 100 | > 200 | > 200 | > 200 | > 200 | > 200 | 0 | 0 | > 200 | > 200 | > 200 | > 200 | > 200 | > 200 | 100 | > 200 | > 200 | MIC ([8]; Staphylococcus aureus (NRS70)): > 200 µg/mL; MIC [9, 20]: > 200 µg/mL; MIC [16, 26]: 50 µg/mL; MIC [18, 25]: > 200 µg/mL
3 | CN[C@@H]1[C@H](O)[C@H](NC)[C@H]2O[C@]3(O)[C@H](O[C@@H]2[C@H]1O)O[C@H](C)C[C@@]3(O)CNCC(C)c1ccccc1 (stereo partly drawn) [compound 65] | 12 | 10 | 12.5 (≈ 26 µM) |  | 6.3 to 12.5 (≈ 13.1 to 26 µM) | > 200 | 25 (≈ 51.9 µM) | > 200 | 12.5 (≈ 26 µM) | 22 | 13 | 12.5 (≈ 26 µM) | > 200 | ≥ 200 | ≥ 200 |  | > 200 | 3.1 (≈ 6.44 µM) | 50 (≈ 104 µM) | > 200 | MIC ([4]; Streptococcus pneumoniae): 12.5 µg/mL (≈ 26 µM); MIC ([8]; Staphylococcus aureus): 12.5 to 25 µg/mL (≈ 26 to 51.9 µM); MIC [9, 27]: 12.5 µg/mL (≈ 26 µM); MIC ([14]; Stenotrophomonas maltophilia, ATCC13637, read-out: MIC S.m.): 12.5 µg/mL (≈ 26 µM); MIC [16, 24]: 12.5 µg/mL (≈ 26 µM); MIC ([17]; read-out: MIC TN022): 100 µg/mL (≈ 208 µM); MIC ([17]; read-out: MIC TN026): 100 µg/mL (≈ 208 µM); MIC [18, 25]: 50 µg/mL (≈ 104 µM)
4 | CN[C@@H]1[C@H](O)[C@H](NC)[C@H]2O[C@]3(O)[C@H](O[C@@H]2[C@H]1O)O[C@H](C)C[C@@]3(O)CNCCc1cccs1 [compound 61, 3′-(R)-3′-[((2-(thiophen-2-yl)ethyl)aminomethyl]dihydrospectinomycintrihydrobromide] | 13 | 14 | 12.5 to 50 | 6.3 | 3.1 to 6.3 | > 200 | 12.5 | 200 | 12.5 to 50 | 30 | 14 | 6.3 | 50 | ≥ 200 | ≥ 200 | 12.5 | > 200 | 1.6 | 6.3 | 100 to 200 | MIC ([8]; Staphylococcus aureus (NRS70)): 25 to 50 µg/mL; MIC [9, 20]: 6.3 µg/mL; MIC [16, 26]: 12.5 µg/mL; MIC ([17]; read-out: MIC TN022): 6.3 µg/mL; MIC ([17]; read-out: MIC TN026): 6.3 µg/mL; MIC [18, 25]: 25 µg/mL
5 | CN[C@@H]1[C@H](O)[C@H](NC)[C@H]2O[C@]3(O)[C@H](O[C@@H]2[C@H]1O)O[C@H](C)C[C@@]3(O)CNCCc1ccc(OC(F)(F)F)cc1 [compound 57, 3′-(R)-3′-[(4-trifluoromethoxy)phenethylaminomethyl]dihydrospectinomycin Trihydrochloride] | 14 | 12 | 25 | 3.1 | 1.3 to 3.1 | ≥ 200 | 25 | 200 | 25 | 22 | 15 | 6.3 | > 200 | ≥ 200 | ≥ 200 | 50 to 100 | > 200 | 0.8 | 12.5 | 200 | MIC ([8]; Staphylococcus aureus (NRS70)): 50 to 100 µg/mL; MIC [9, 27]: 12.5 µg/mL; MIC [16, 26]: 3.1 to 6.3 µg/mL; MIC ([17]; read-out: MIC TN022): 6.3 µg/mL; MIC ([17]; read-out: MIC TN026): 25 µg/mL; MIC ([18]; Escherichia coli, ATCC700926, read-out: MIC E.c.): 25 µg/mL
6 | CN[C@@H]1[C@H](O)[C@H](NC)[C@H]2O[C@]3(O)[C@H](O[C@@H]2[C@H]1O)O[C@H](C)C[C@@]3(O)CNCCc1ccc[nH]1 [compound 62, 3′-(R)-3′-[((2-(1H-pyrrol-2-yl)ethyl)aminomethyl]dihydrospectinomycintetrahydrobromide] | 0 | 0 | 25 | 100 | 12.5 | > 200 | 25 | 200 | 25 | 12 | 0 | 25 | 100 to 200 | > 200 | > 200 | 6.3 | > 200 | 12.5 | 50 | 50 to 100 | MIC ([8]; Staphylococcus aureus): 12.5 to 25 µg/mL; MIC [9, 20]: 6.3 µg/mL; MIC [16, 26]: 200 µg/mL; MIC ([17]; read-out: MIC TN022): 25 µg/mL; MIC ([17]; read-out: MIC TN026): 100 µg/mL; MIC [18, 25]: 50 µg/mL
7 | CN[C@@H]1[C@H](O)[C@H](NC)[C@H]2O[C@]3(O)[C@H](O[C@@H]2[C@H]1O)O[C@H](C)C[C@@]3(O)CNCCc1nccs1 [compound 64, 3′-(R)-3′-[((2-(thiazol-2-yl)ethyl)aminomethyl]dihydrospectinomycintetrahydrobromide] | 8 | 11 | 50 | 12.5 | 25 to 50 | > 200 | 50 to 100 | > 200 | 50 | 33 | 11 | 12.5 | 100 to 200 | > 200 | > 200 | 25 to 50 | > 200 | 3.1 | 1.6 | > 200 | MIC ([8]; Staphylococcus aureus (NRS70)): > 200 µg/mL; MIC [9, 20]: 12.5 to 25 µg/mL; MIC [16, 26]: 25 µg/mL; MIC ([17]; read-out: MIC TN022): 1.6 µg/mL; MIC ([17]; read-out: MIC TN026): 1.6 µg/mL; MIC [18, 25]: 50 to 100 µg/mL
